US6727275B2, “Pyrrolidinone derivatives” (UCB, S.A./N.V., priority 2001, dated 2004)
Where two headings read alike, the source gives them in different places.

Biological target: T1, CCR2 (Homo sapiens, UniProt P41597)
T1 sequence (P41597 1-360 isoform P41597-2): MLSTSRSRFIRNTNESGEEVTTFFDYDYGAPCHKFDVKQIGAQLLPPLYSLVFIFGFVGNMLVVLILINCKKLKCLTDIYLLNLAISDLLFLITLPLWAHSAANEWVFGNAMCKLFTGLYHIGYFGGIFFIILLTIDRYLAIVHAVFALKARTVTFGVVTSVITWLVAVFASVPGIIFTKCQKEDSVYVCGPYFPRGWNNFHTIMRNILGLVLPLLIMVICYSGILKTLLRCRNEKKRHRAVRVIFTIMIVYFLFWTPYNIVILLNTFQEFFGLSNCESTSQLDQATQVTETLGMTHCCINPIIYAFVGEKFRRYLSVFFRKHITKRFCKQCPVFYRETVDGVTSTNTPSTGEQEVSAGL
Assay: Binding assay: inhibition of 125I-MCP-1 binding to THP-1 cells
Parameters: CCR2 is also expressed in the human monocytic cell line THP-1; endogenous in cells; host or cells: THP-1 (human monocytic cell line), whole cells
Protocol: Antagonism of the CCR2 receptor is determined by a binding assay using the human monocytic cell line THP-1. Cells are suspended in assay buffer (RPMI+1% BSA+25 mM HEPES) at 3×10^6 cells/ml and an aliquot (180 μl) added to a 0.5 ml siliconized Eppendorf tube. […] After incubation for 1 hr at room temperature, the cell suspension is centrifuged through oil and the cell pellets counted to quantitate cell-bound ligand. Nonspecific (NS) binding of radioligand is determined by the addition of 100 nM cold MCP-1. Control binding is determined by the addition of buffer without compound.

[1] = THP-1 cells, 0.1 nM 125I-MCP-1, 1 hr at room temperature, read-out: Inhibition of 125I-MCP-1 binding to THP-1 cells, IC50

| Compound | IC50 [1] [µM] | IC50 [µM] |
| --- | --- | --- |
| CC(=O)C1=C(O)C(=O)N(c2ccc(F)cc2)C1C1CCCCC1 (racemic) [Compound 25, 4-acetyl-5-cyclohexyl-1-(4-fluorophenyl)-3-hydroxy-1,5-dihydro-2H-pyrrol-2-one] | ≤ 5 |  |
| CC(=O)C1=C(O)C(=O)N(c2ccc(C)c(C)c2)C1CC(C)(C)C (racemic) [Compound 116, 4-acetyl-1-(3,4-dimethylphenyl)-3-hydroxy-5-neopentyl-1,5-dihydro-2H-pyrrol-2-one] | ≤ 5 |  |
| CC(=O)C1=C(O)C(=O)N(c2ccc(Cl)cc2)C1CC1CCCC1 (racemic) [Compound 134, 4-acetyl-1-(4-chlorophenyl)-5-(cyclopentylmethyl)-3-hydroxy-1,5-dihydro-2H-pyrrol-2-one] | ≤ 5 |  |
| CC(=O)C1=C(O)C(=O)N(c2ccc(C)c(Br)c2)C1C1CCCCC1 (racemic) [Compound 73, 4-acetyl-1-(3-bromo-4-methylphenyl)-5-cyclohexyl-3-hydroxy-1,5-dihydro-2H-pyrrol-2-one] | ≤ 5 |  |
| CC(=O)C1=C(O)C(=O)N(c2c(F)cc(Cl)cc2F)C1C1CCCCC1 (racemic) [Compound 120, 4-acetyl-1-(4-chloro-2,6-difluorophenyl)-5-cyclohexyl-3-hydroxy-1,5-dihydro-2H-pyrrol-2-one] | ≤ 5 |  |
| CCCC(CCC)C1C(C(C)=O)=C(O)C(=O)N1c1ccc(C)cc1 (racemic) [Compound 39, 4-acetyl-3-hydroxy-1-(4-methylphenyl)-5-(1-propylbutyl)-1,5-dihydro-2H-pyrrol-2-one] |  | ≤ 5 |
| CC(=O)C1=C(O)C(=O)N(c2ccc3c(c2)CCC3)C1C1CCCCC1 (racemic) [Compound 63, 4-acetyl-5-cyclohexyl-1-(2,3-dihydro-1H-inden-5-yl)-3-hydroxy-1,5-dihydro-2H-pyrrol-2-one] | ≤ 5 |  |
| CC(=O)C1=C(O)C(=O)N(c2ccc(Cl)cc2F)C1C1CCCC1 (racemic) [Compound 119, 4-acetyl-1-(4-chloro-2-fluorophenyl)-5-cyclopentyl-3-hydroxy-1,5-dihydro-2H-pyrrol-2-one] | ≤ 5 |  |
| COc1ccc(N2C(=O)C(O)=C(C(C)=O)C2C2CCCCC2)cc1 (racemic) [Compound 14, 4-acetyl-5-cyclohexyl-3-hydroxy-1-(4-methoxyphenyl)-1,5-dihydro-2H-pyrrol-2-one] | ≤ 5 |  |
| CC(=O)C1=C(O)C(=O)N(c2ccc(C)c(Cl)c2)C1C1CCCCC1 (racemic) [Compound 59, 4-acetyl-1-(3-chloro-4-methylphenyl)-5-cyclohexyl-3-hydroxy-1,5-dihydro-2H-pyrrol-2-one] | ≤ 5 |  |
| CC(=O)C1=C(O)C(=O)N(c2ccc(Cl)cc2)C1C1CCC(C)CC1 (racemic) [Compound 150, 4-acetyl-1-(4-chlorophenyl)-3-hydroxy-5-(4-methylcyclohexyl)-1,5-dihydro-2H-pyrrol-2-one] | ≤ 5 |  |
| CC(=O)C1=C(O)C(=O)N(c2ccc(C(F)(F)F)cc2)C1C1CCCCC1 (racemic) [Compound 49, 4-acetyl-5-cyclohexyl-3-hydroxy-1-[4-(trifluoromethyl)phenyl]-1,5-dihydro-2H-pyrrol-2-one] | ≤ 5 |  |
| CC(=O)C1=C(O)C(=O)N(c2ccc(F)c(C)c2)C1C1CCCCC1 (racemic) [Compound 64, 4-acetyl-5-cyclohexyl-1-(4-fluoro-3-methylphenyl)-3-hydroxy-1,5-dihydro-2H-pyrrol-2-one] | ≤ 5 |  |
| CC(=O)C1=C(O)C(=O)N(c2c(F)cc(Cl)cc2F)[C@@H]1C1CCCCC1 (stereo in doubt) [Compound 148, (R)-4-acetyl-1-(4-chloro-2,6-difluorophenyl)-5-cyclohexyl-3-hydroxy-1,5-dihydro-2H-pyrrol-2-one] | ≤ 5 |  |
| CC(=O)C1=C(O)C(=O)N(c2ccc(F)cc2)[C@@H]1C1CCCC1 [Compound 137, (R)-4-acetyl-5-cyclopentyl-1-(4-fluorophenyl)-3-hydroxy-1,5-dihydro-2H-pyrrol-2-one] | ≤ 5 |  |
| CC(=O)C1=C(O)C(=O)N(c2ccc(Cl)c(N)c2)C1C1CCCCC1 (racemic) [Compound 71, 4-acetyl-1-(3-amino-4-chlorophenyl)-5-cyclohexyl-3 hydroxy-1,5-dihydro-2H-pyrrol-2-one] | ≤ 5 |  |
| CC(=O)C1=C(O)C(=O)N(c2ccccc2)C1C1CCCCC1 (racemic) [Compound 23, 4-acetyl-5-cyclohexyl-3-hydroxy-1-phenyl-1,5-dihydro-2H-pyrrol-2-one] | ≤ 5 |  |
| CCC(C)C(C)C1C(C(C)=O)=C(O)C(=O)N1c1ccc(C)cc1 (centres unmarked) [Compound 19, 4-acetyl-5-(1,2-dimethylbutyl)-3-hydroxy-1-(4-methylphenyl)-1,5-dihydro-2H-pyrrol-2-one] | ≤ 5 |  |

| Compound | IC50 [1] [µM] | IC50 [µM] |
| --- | --- | --- |
| CC(=O)C1=C(S)C(=O)N(c2ccc(Cl)cc2)C1C1CCCCC1 (racemic) [Compound 157, 4-acetyl-1-(4-chlorophenyl)-5-cyclohexyl-3-mercapto-1,5-dihydro-2H-pyrrol-2-one] | ≤ 5 |  |
| CC(=O)C1=C(O)C(=O)N(c2ccc(Br)cc2)C1c1ccc(Br)cc1 (racemic) [Compound 9, 4-acetyl-1,5-bis(4-bromophenyl)-3-hydroxy-1,5-dihydro-2H-pyrrol-2-one] | ≤ 5 |  |
| CC(=O)C1=C(O)C(=O)N(c2ccc(C)cc2)C1C12CC3CC(CC(C3)C1)C2 (racemic) [Compound 58, 4-acetyl-5-(1-adamantyl)-3-hydroxy-1-(4-methylphenyl)-1,5-dihydro-2H-pyrrol-2-one] | ≤ 5 |  |
| CC(=O)C1=C(N)C(=O)N(c2ccc(C)cc2)C1C1CCCCC1 (racemic) [Compound 61, 4-acetyl-3-amino-5-cyclohexyl-1-(4-methylphenyl)-1,5-dihydro-2H-pyrrol-2-one] | ≤ 5 |  |
| CC(=O)C1=C(O)C(=O)N(c2ccc(Cl)c(Cl)c2)C1C1CCCCC1 (racemic) [Compound 48, 4-acetyl-5-cyclohexyl-1-(3,4-dichlorophenyl)-3-hydroxy-1,5-dihydro-2H-pyrrol-2-one] | ≤ 5 |  |
| CC(=O)C1=C(O)C(=O)N(Cc2ccccc2)C1C1CCCCC1 (racemic) [Compound 7, 4-acetyl-1-benzyl-5-cyclohexyl-3-hydroxy-1,5-dihydro-2H-pyrrol-2-one] | ≤ 5 |  |
| CC(=O)C1=C(S)C(=O)N(c2ccc(Cl)cc2F)C1C1CCCCC1 (racemic) [Compound 169, 4-acetyl-1-(4-chloro-2-fluorophenyl)-5-cyclohexyl-3-sulfanyl-1,5-dihydro-2H-pyrrol-2-one] | ≤ 5 |  |
| CC(=O)C1=C(O)C(=O)N(c2ccc(Cl)c(C(F)(F)F)c2)C1C1CCCCC1 (racemic) [Compound 55, 4-acetyl-1-[4-chloro-3-(trifluoromethyl)phenyl]-5-cyclohexyl-3-hydroxy-1,5-dihydro-2H-pyrrol-2-one] | ≤ 5 |  |
| CCCC1C(C(C)=O)=C(O)C(=O)N1c1ccc(C)c(C)c1 (racemic) [Compound 74, 4-acetyl-1-(3,4-dimethylphenyl)-3-hydroxy-5-propyl-1,5-dihydro-2H-pyrrol-2-one] | ≤ 5 |  |
| CC(=O)C1=C(O)C(=O)N(c2ccc(C)cc2)C1CC(C)C (racemic) [Compound 40, 4-acetyl-3-hydroxy-5-isobutyl-1-(4-methylphenyl)-1,5-dihydro-2H-pyrrol-2-one] | ≤ 5 |  |
| CC(=O)C1=C(O)C(=O)N(c2ccc(F)cc2)[C@@H]1C1CCCCC1 [Compound 139, (R)-4-acetyl-5-cyclohexyl-1-(4-fluorophenyl)-3-hydroxy-1,5-dihydro-2H-pyrrol-2-one] | ≤ 5 |  |
| CC(=O)C1=C(O)C(=O)N(c2ccc(Cl)c(C)c2)[C@@H]1C1CCCC1 [Compound 135, (R)-4-acetyl-1-(4-chloro-3-methylphenyl)-5-cyclopentyl-3-hydroxy-1,5-dihydro-2H-pyrrol-2-one] | ≤ 5 |  |
| CC(=O)C1=C(O)C(=O)N(c2ccc(Cl)s2)C1C1CCCCC1 (racemic) [Compound 170, 4-acetyl-1-(5-chloro-2-thienyl)-5-cyclohexyl-3-hydroxy-1,5-dihydro-2H-pyrrol-2-one] | ≤ 5 |  |
| CCc1cc(N2C(=O)C(O)=C(C(C)=O)C2C2CCCCC2)ccc1Cl (racemic) [Compound 70, 4-acetyl-1-(4-chloro-3-ethylphenyl)-5-cyclohexyl-3-hydroxy-1,5-dihydro-2H-pyrrol-2-one] | ≤ 5 |  |
| CC(=O)C1=C(O)C(=O)N(c2ccc(C)cc2)C1c1ccc(Br)cc1 (racemic) [Compound 20, 4-acetyl-5-(4-bromophenyl)-3-hydroxy-1-(4-methylphenyl)-1,5-dihydro-2H-pyrrol-2-one] | ≤ 5 |  |
| CC(=O)C1=C(O)C(=O)N(c2ccc(C)c(F)c2)C1C1CCCCC1 (racemic) [Compound 47, 4-acetyl-5-cyclohexyl-1-(3-fluoro-4-methylphenyl)-3-hydroxy-1,5-dihydro-2H-pyrrol-2-one] | ≤ 5 |  |
| CC(=O)C1=C(O)C(=O)N(c2ccc(C(C)C)cc2)C1C1CCCCC1 (racemic) [Compound 52, 4-acetyl-5-cyclohexyl-3-hydroxy-1-(4-isopropylphenyl)-1,5-dihydro-2H-pyrrol-2-one] | ≤ 5 |  |
